Here are results for 25 compounds from US20250186391A1, “ORAL COMPLEMENT FACTOR D INHIBITORS” (BioCryst Pharmaceuticals, Inc., priority 2019, published 2025).

Usually IC50 stands for the concentration that inhibits the measured activity by half.

A value given as a limit tells only on which side of the number the result lay.

In this assay the target is Factor D (Homo sapiens (Human), UniProt P00746). The assay is described as follows: Factor D esterolytic assay. The assay is classed as biochemical. The following applies: Z-Lys-SBzl substrate, 100 mM HEPES, 500 mM NaCl, pH 7.5, 10% DMSO; tested a minimum of three times; read-out: Measured Ki (IC50) Value for Compounds: IC50. In a few lines: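 Chromogenic thioesterase read-out: Z-Lys-SBzl (1.29 mM) hydrolysis by human Factor D, thiol detected with DTNB at 405 nm (690 nm background subtracted) for 600 s. Run in 100 mM HEPES, 500 mM NaCl, pH 7.5, 10% DMSO, substrate added immediately or after room-temperature preincubation. IC50 from percent inhibition versus enzyme alone, n≥3.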
Sequence of Factor D (P00746 26-253): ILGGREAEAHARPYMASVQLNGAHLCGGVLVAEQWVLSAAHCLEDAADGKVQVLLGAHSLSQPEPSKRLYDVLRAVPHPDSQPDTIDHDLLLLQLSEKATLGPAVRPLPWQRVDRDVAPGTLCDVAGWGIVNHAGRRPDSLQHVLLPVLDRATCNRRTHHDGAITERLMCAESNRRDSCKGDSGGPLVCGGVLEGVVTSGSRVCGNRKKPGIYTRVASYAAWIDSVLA
As for `COc1ccc(CC(=O)O)c(OCc2c(C)oc3ccc(-c4cccc(CN)c4)cc23)c1` [Compound 138c, 2-(2-((5-(3-(aminomethyl)phenyl)-2-methylbenzofuran-3-yl)methoxy)-4-methoxyphenyl)acetic acid], the IC50 is less than 1000 nM.
In the case of `CCCc1oc2ccc(-c3cccc(CN)c3)cc2c1COc1cc(C)ccc1CC(=O)O` [Compound 285c, 2-(2-((5-(3-(aminomethyl)phenyl)-2-propylbenzofuran-3-yl)methoxy)-4-methylphenyl)acetic acid], the IC50 was less than 1000 nM.
As to `COCCc1oc2ccc(-c3cccc(CN)c3)cc2c1COc1cc(OC)ccc1CC(=O)O` [Compound 238c, 2-(2-((5-(3-(aminomethyl)phenyl)-2-(2-methoxyethyl)benzofuran-3-yl)methoxy)-4-methoxyphenyl)acetic acid], the IC50 is less than 1000 nM.
Turning to `NCc1cccc(-c2cc(COc3ccccc3CC(=O)O)cc3cc(CCOc4ccccc4CC(=O)O)oc23)c1` [Compound 20j, 2-(2-((7-(3-(aminomethyl)phenyl)-2-(2-(2-(carboxymethyl)phenoxy)ethyl)benzofuran-5-yl)methoxy)phenyl)acetic acid], the IC50 is less than 1000 nM.
For the compound `NCc1cccc(-c2ccc3occ(COc4cc(C5CC5)ccc4CC(=O)O)c3c2)c1` [Compound 111d, 2-(2-((5-(3-(aminomethyl)phenyl)benzofuran-3-yl)methoxy)-4-cyclopropylphenyl)acetic acid], the IC50 was less than 1000 nM.
Next, `NCc1cccc(-c2cc(CNCC3CC3)c3occ(COc4ccccc4CC(=O)O)c3c2)c1` [Compound 209c, 2-(2-((5-(3-(aminomethyl)phenyl)-7-(((cyclopropylmethyl)amino)methyl)benzofuran-3-yl)methoxy)phenyl)acetic acid]: less than 1000 nM; `NCc1cccc(-c2cc3c(COc4ccccc4CC(=O)O)ccc(C4CC4)c3o2)c1` [Compound 291g, 2-(2-((2-(3-(aminomethyl)phenyl)-7-cyclopropylbenzofuran-4-yl)methoxy)phenyl)acetic acid]: 1000 to 10000 nM.
As to `NCc1cccc(-c2ccc3occ(COc4ccc(F)cc4CC(=O)O)c3c2)c1` [Compound 5d, 2-(2-((5-(3-(aminomethyl)phenyl)benzofuran-3-yl)methoxy)-5-fluorophenyl)acetic acid], the IC50 is less than 1000 nM.
On to `CC(C)n1nc(COc2c(C#N)cccc2CC(=O)O)c2cc(-c3cccc(CN)c3)ccc21` [Compound 305c, 2-(2-((5-(3-(aminomethyl)phenyl)-1-isopropyl-1H-indazol-3-yl)methoxy)-3-cyanophenyl)acetic acid], for which the IC50 was less than 1000 nM.
Turning to `NCc1cccc(-c2cc(NCC3CC3)c3occ(COc4ccccc4CC(=O)O)c3c2)c1` [Compound 85c, 2-(2-((5-(3-(aminomethyl)phenyl)-7-((cyclopropylmethyl)amino)benzofuran-3-yl)methoxy)phenyl)acetic acid], the IC50 is less than 1000 nM.
On to `NCc1cccc(-c2ccc3c(c2)c(COc2ccccc2CC(=O)O)nn3C2CC2)c1` [Compound 260c, 2-(2-((5-(3-(aminomethyl)phenyl)-1-cyclopropyl-1H-indazol-3-yl)methoxy)phenyl)acetic acid], for which the IC50 is less than 1000 nM.
Next, `NCc1cc(-c2cc3c(COc4ccccc4CC(=O)O)coc3c3ccoc23)ccn1` [Compound 288d, 2-(2-((5-(2-(aminomethyl)pyridin-4-yl)benzo[1,2-b:3,4-b′]difuran-3-yl)methoxy)phenyl)acetic acid]: less than 1000 nM; `COc1ccc(CC(=O)O)c(OCc2coc3ccc(-c4ccnc(CN)c4)cc23)c1` [Compound 68e, 2-(2-((5-(2-(aminomethyl)pyridin-4-yl)benzofuran-3-yl)methoxy)-4-methoxyphenyl)acetic acid]: less than 1000 nM.
Regarding `NCc1cccc(-c2cc(Oc3ccccc3)c3occ(COc4ccccc4CC(=O)O)c3c2)c1` [Compound 194f, 2-(2-((5-(3-(aminomethyl)phenyl)-7-phenoxybenzofuran-3-yl)methoxy)phenyl)acetic acid], the IC50 is less than 1000 nM.
Turning to `NCc1cccc(-c2ccc3c(c2)c(COc2ccccc2CC(=O)O)nn3-c2cccnc2)c1` [Compound 264c, 2-(2-((5-(3-(aminomethyl)phenyl)-1-(pyridin-3-yl)-1H-indazol-3-yl)methoxy)phenyl)acetic acid], the IC50 is less than 1000 nM.
Consider `NCc1cc(-c2ccc3occ(COc4ccccc4CC(=O)O)c3c2)ccn1` [Compound 53b, 2-(2-((5-(2-(aminomethyl)pyridin-4-yl)benzofuran-3-yl)methoxy)phenyl)acetic acid], for which the IC50 was less than 1000 nM.
For the compound `CC(C)n1nc(COc2ccccc2CC(=O)O)c2cc(-c3cccc([C@@H](C)N)c3)ccc21` [Compound 323b, (R)-2-(2-((5-(3-(1-aminoethyl)phenyl)-1-isopropyl-1H-indazol-3-yl)methoxy)phenyl)acetic acid], the IC50 was less than 1000 nM.
Next, `CCCc1oc2ccc(-c3cccc(CN)c3F)cc2c1COc1cc(OC)ccc1CC(=O)O` [Compound 297b, 2-(2-((5-(3-(aminomethyl)-2-fluorophenyl)-2-propylbenzofuran-3-yl)methoxy)-4-methoxyphenyl)acetic acid]: less than 1000 nM; `NCc1cccc(-c2cc(CN3CCC(F)(F)C3)c3occ(COc4ccccc4CC(=O)O)c3c2)c1` [Compound 181f, 2-(2-((5-(3-(aminomethyl)phenyl)-7-((3,3-difluoropyrrolidin-1-yl)methyl)benzofuran-3-yl)methoxy)phenyl)acetic acid]: less than 1000 nM.
Next, `CC(C)n1nc(COc2cccc(CC(=O)O)c2)c2cc(-c3cccc(CN)c3)ccc21` [Compound 304c, 2-(3-((5-(3-(aminomethyl)phenyl)-1-isopropyl-1H-indazol-3-yl)methoxy)phenyl)acetic acid]: more than 10000 nM.
`NCc1cccc(-c2cc(NCC3CCCO3)c3occ(COc4ccccc4CC(=O)O)c3c2)c1` (stereo not shown) [Compound 149d, 2-(2-((5-(3-(aminomethyl)phenyl)-7-(((tetrahydrofuran-2-yl)methyl)amino)benzofuran-3-yl)methoxy)phenyl)acetic acid]: the IC50 is less than 1000 nM.
Take `CCc1oc2ccc(-c3cccc(CN)c3)cc2c1COc1ccccc1CC(=O)O` [Compound 226c, 2-(2-((5-(3-(aminomethyl)phenyl)-2-ethylbenzofuran-3-yl)methoxy)phenyl)acetic acid]: the IC50 was less than 1000 nM.
Next, `COc1ccc(OCc2coc3ccc(-c4cccc(CN)c4)cc23)c(CC(=O)O)c1` [Compound 106c, 2-(2-((5-(3-(aminomethyl)phenyl)benzofuran-3-yl)methoxy)-5-methoxyphenyl)acetic acid]: less than 1000 nM.
As for `Cc1ccc(OCc2coc3ccc(-c4cccc(CN)c4)cc23)c(CC(=O)O)c1` [Compound 105d, 2-(2-((5-(3-(aminomethyl)phenyl)benzofuran-3-yl)methoxy)-5-methylphenyl)acetic acid], the figure is less than 1000 nM; as for `COc1ccc(CC(=O)O)c(OCc2c(C)oc3ccc(-c4cccc(CN)n4)cc23)c1` [Compound 245d, 2-(2-((5-(6-(aminomethyl)pyridin-2-yl)-2-methylbenzofuran-3-yl)methoxy)-4-methoxyphenyl)acetic acid], less than 1000 nM.
